# According to patent US12077503B2, “Substituted cyclic amides and their use as herbicides” (FMC CORPORATION, priority 2015, dated 2024):
# Like-named read-outs stand apart in the source and are kept apart here.
# Legend:
# Type in all cases: in vivo
# [1] = test system: pigweed (Amaranthus retroflexus); test: Test A preemergence; conditions: Amaranthus retroflexus, pre-emergence, 240 h; for pest or weed control at 125 g/ha: 125 g ai/ha; for pest or weed control at 500 g/ha: 500 g ai/ha
# [2] = test system: Galium (catchweed bedstraw, Galium aparine); test: Test A postemergence; conditions: Galium, post-emergence, 240 h, postemergence; for pest or weed control at 125 g/ha: 125 g ai/ha, visual injury on 0 to 100 scale (0 no effect, 100 complete control); for pest or weed control at 500 g/ha: 500 g ai/ha
# Method in brief: (§1)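 Preemergence soil spray on seeded pots or post-emergence spray on 1–2 leaf plants, in loam–sand blend. Greenhouse ~10 d. Visual rating 0–100 against untreated plants.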
# Kochia (Kochia scoparia) = test: Test A postemergence; conditions: Bassia scoparia, post-emergence, 240 h, postemergence; for pest or weed control at 125 g/ha: 125 g ai/ha, visual injury on 0 to 100 scale (0 no effect, 100 complete control); for pest or weed control at 500 g/ha: 500 g ai/ha
# Method in brief: as §1
# [3] = test system: barnyardgrass (Echinochloa crus-galli); test: Test A postemergence; conditions: Echinochloa crus-galli, post-emergence, 240 h, postemergence; for pest or weed control at 125 g/ha: 125 g ai/ha, visual injury on 0 to 100 scale (0 no effect, 100 complete control); for pest or weed control at 500 g/ha: 500 g ai/ha
# Method in brief: as §1
# [4] = test system: blackgrass (Alopecurus myosuroides); test: Test A postemergence; conditions: Alopecurus myosuroides, post-emergence, 240 h, postemergence; for pest or weed control at 125 g/ha: 125 g ai/ha, visual injury on 0 to 100 scale (0 no effect, 100 complete control); for pest or weed control at 500 g/ha: 500 g ai/ha
# Method in brief: as §1
# corn (Zea mays) = test: Test A postemergence; conditions: Zea mays, post-emergence, 240 h, postemergence; for plant injury at 125 g/ha: 125 g ai/ha, visual injury on 0 to 100 scale (0 no effect, 100 complete control)
# Method in brief: as §1
# [5] = test system: giant foxtail (Setaria faberii); test: Test A postemergence; conditions: Setaria faberi, post-emergence, 240 h, postemergence; for pest or weed control at 125 g/ha: 125 g ai/ha, visual injury on 0 to 100 scale (0 no effect, 100 complete control); for pest or weed control at 500 g/ha: 500 g ai/ha
# Method in brief: as §1
# [6] = test system: pigweed (Amaranthus retroflexus); test: Test A postemergence; conditions: Amaranthus retroflexus, post-emergence, 240 h, postemergence, read-out: Pigweed plant response rating; for pest or weed control at 125 g/ha: 125 g ai/ha, visual injury on 0 to 100 scale (0 no effect, 100 complete control), approx. 10 d
# Method in brief: as §1
# [7] = test system: ragweed (common ragweed, Ambrosia elatior); test: Test A postemergence; conditions: Ambrosia artemisiifolia, post-emergence, 240 h, postemergence, read-out: Ragweed plant response rating; for pest or weed control at 125 g/ha: 125 g ai/ha, visual injury on 0 to 100 scale (0 no effect, 100 complete control), approx. 10 d
# Method in brief: as §1
# [8] = test system: ryegrass, Italian (Italian ryegrass, Lolium multiflorum); test: Test A postemergence; conditions: Lolium multiflorum, post-emergence, 240 h, postemergence, read-out: Ryegrass, Italian plant response rating; for pest or weed control at 125 g/ha: 125 g ai/ha, visual injury on 0 to 100 scale (0 no effect, 100 complete control), approx. 10 d
# Method in brief: as §1
# [9] = test system: wheat (Triticum aestivum); test: Test A postemergence; conditions: Triticum aestivum, post-emergence, 240 h, postemergence, read-out: Wheat plant response rating; for plant injury at 125 g/ha: 125 g ai/ha, visual injury on 0 to 100 scale (0 no effect, 100 complete control), approx. 10 d
# Method in brief: as §1
# [10] = test system: barnyardgrass (Echinochloa crus-galli); test: Test B flooded paddy test; conditions: Echinochloa crus-galli, 250 g ai/ha, Flood; 0 to 100 scale where 0 is no effect and 100 is complete control; read-out: Barnyardgrass plant response rating
# Method in brief: (§2)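 Compound goes directly into floodwater once pots are flooded 3 cm above soil, targeting plants at two leaves; the water depth is then held for the test duration. Plants sit 13–15 d in a greenhouse and are rated visually, 100 denoting complete control.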
# [11] = test system: ducksalad (Heteranthera limosa); test: Test B flooded paddy test; conditions: Heteranthera limosa, 250 g ai/ha, Flood; 0 to 100 scale where 0 is no effect and 100 is complete control; read-out: Ducksalad plant response rating
# Method in brief: as §2
# rice (Oryra sativa) = test: Test B flooded paddy test; conditions: Oryza sativa, 250 g ai/ha, Flood; 0 to 100 scale where 0 is no effect and 100 is complete control; read-out: Rice plant response rating
# Method in brief: as §2
# [12] = test system: sedge, umbrella (small-flower umbrella sedge, Cyperus difformis); test: Test B flooded paddy test; conditions: Cyperus difformis, 250 g ai/ha, Flood; 0 to 100 scale where 0 is no effect and 100 is complete control; read-out: Sedge, Umbrella plant response rating
# Method in brief: as §2
# [13] = approx. 10 d, read-out: Galium plant response rating
# [14] = approx. 10 d, read-out: Kochia plant response rating
# [15] = approx. 10 d, read-out: Barnyardgrass plant response rating
# [16] = approx. 10 d, read-out: Blackgrass plant response rating
# [17] = approx. 10 d, read-out: Corn plant response rating
# [18] = approx. 10 d, read-out: Foxtail, Giant plant response rating
# [19] = 500 g ai/ha, 0 to 100 scale, 0 is no effect, 100 is complete control
SMILES,"pest or weed control at 125 g/ha [2, 13] [%]",pest or weed control at 125 g/ha (Kochia (Kochia scoparia); [14]) [%],"pest or weed control at 125 g/ha [3, 15] [%]","pest or weed control at 125 g/ha [4, 16] [%]",plant injury at 125 g/ha (corn (Zea mays); [17]) [%],"pest or weed control at 125 g/ha [5, 18] [%]",pest or weed control at 125 g/ha [6] [%],pest or weed control at 125 g/ha [7] [%],pest or weed control at 125 g/ha [8] [%],plant injury at 125 g/ha [9] [%],pest or weed control at 250 g/ha [10] [%],pest or weed control at 250 g/ha [11] [%],pest or weed control at 250 g/ha (rice (Oryra sativa)) [%],pest or weed control at 250 g/ha [12] [%],other results
CN1CC(c2cccc(Br)c2)C(C(=O)Nc2ccccc2F)C1=O (stereo not drawn) [Compound 1132],0,0,90,30,60,80,0,0,0,30,60,90,15,40,"pest or weed control at 125 g/ha ([1]; preemergence, 0 to 100 scale where 0 is no effect and 100 is complete control, approx. 10 d, read-out: Pigweed plant response rating): 0%; pest or weed control at 500 g/ha ([1]; preemergence, 0 to 100 scale where 0 is no effect and 100 is complete control, read-out: Pigweed plant response rating): 0%; pest or weed control at 500 g/ha ([2]; 0 to 100 scale, 0 is no effect, 100 is complete control, read-out: Galium plant response rating): 30%; pest or weed control at 500 g/ha (Kochia (Kochia scoparia); 0 to 100 scale, 0 is no effect, 100 is complete control, read-out: Kochia plant response rating): 0%; pest or weed control at 500 g/ha ([3]; 0 to 100 scale, 0 is no effect, 100 is complete control, read-out: Barnyardgrass plant response rating): 90%; pest or weed control at 500 g/ha ([4]; 0 to 100 scale, 0 is no effect, 100 is complete control, read-out: Blackgrass plant response rating): 50%; plant injury at 500 g/ha (corn (Zea mays); 500 g ai/ha, 0 to 100 scale, 0 is no effect, 100 is complete control, read-out: Corn plant response rating): 80%; pest or weed control at 500 g/ha ([5]; 0 to 100 scale, 0 is no effect, 100 is complete control, read-out: Foxtail, Giant plant response rating): 90%; pest or weed control at 500 g/ha [6, 19]: 0%; pest or weed control at 500 g/ha [7, 19]: 0%; pest or weed control at 500 g/ha [8, 19]: 30%; plant injury at 500 g/ha [9, 19]: 70%"
O=C1NC[C@H](c2ccc3c(c2)CCC3)[C@H]1C(=O)Nc1cccc(F)c1F [Compound 1046],50,0,90,30,20,60,0,0,40,20,60,100,0,0,"pest or weed control at 125 g/ha ([1]; Preemergence, visual injury rating after approximately 10 d, read-out: Pigweed plant response rating (0 to 100 scale, 0 is no effect, 100 is complete control)): 0%; pest or weed control at 500 g/ha ([1]; preemergence, visual injury rating about 10 d after treatment, 0 to 100 scale (0 no effect, 100 complete control), read-out: Pigweed plant response rating): 0%; pest or weed control at 500 g/ha ([2]; visual injury, 0 to 100 scale (0 no effect, 100 complete control), approx. 10 d, read-out: Plant response rating, Galium): 50%; pest or weed control at 500 g/ha (Kochia (Kochia scoparia); visual injury, 0 to 100 scale (0 no effect, 100 complete control), approx. 10 d, read-out: Plant response rating, Kochia): 0%; pest or weed control at 500 g/ha ([3]; visual injury, 0 to 100 scale (0 no effect, 100 complete control), approx. 10 d, read-out: Plant response rating, Barnyardgrass): 90%; pest or weed control at 500 g/ha ([4]; visual injury, 0 to 100 scale (0 no effect, 100 complete control), approx. 10 d, read-out: Plant response rating, Blackgrass): 50%; Corn plant response rating (crop injury, 0 = no effect, 100 = complete kill) at 500 g/ha (corn (Zea mays); 500 g ai/ha, visual injury, 0 to 100 scale (0 no effect, 100 complete control), approx. 10 d): 60%; pest or weed control at 500 g/ha ([5]; visual injury, 0 to 100 scale (0 no effect, 100 complete control), approx. 10 d, read-out: Plant response rating, Foxtail, Giant): 90%"
